Where “and” joins values, the source holds several entries; their conditions need not be identical. Equal values may be shown once. Toxic doses and inconclusive results are not listed. Square brackets hold non-standard residues; d marks the D form. Peptide text beside a SMILES is read from it. ξ: configuration not given here. ξNle = CCCCC(N)C(=O)O
Tested on: BDF1 mice, B16 melanoma ip, median survival T/C
Assay: NCI In Vivo Anticancer Drug Screen. Data for tumor model B16 Melanoma (intraperitoneal) in B6D2F1 (BDF1) mice
Details: endpoint: median survival time, higher = longer survival
Procedure, shortened: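 Tumor-bearing mice received test compound or vehicle. Survival or tumor size was then measured in both groups. The treated-group figure was divided by the control-group figure.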

[1] = dose: 50.0 mg/kg/injection, schedule: Q01DX009 (ip), vehicle: saline with Tween-80
[2] = dose: 100.0 mg/kg/injection, schedule: Q01DX009 (ip), vehicle: saline with Tween-80
[3] = dose: 50.0 mg/kg/injection, schedule: Q01DX009 (ip), vehicle: Klucel (hydroxypropylcellulose) (HPC)
[4] = dose: 100.0 mg/kg/injection, schedule: Q01DX009 (ip), vehicle: Klucel (hydroxypropylcellulose) (HPC)
[5] = dose: 200.0 mg/kg/injection, schedule: Q01DX009 (ip), vehicle: Klucel (hydroxypropylcellulose) (HPC)
[6] = dose: 200.0 mg/kg/injection, schedule: Q01DX009 (ip), vehicle: saline with Tween-80
[7] = dose: 400.0 mg/kg/injection, schedule: Q01DX009 (ip), vehicle: saline with Tween-80
[8] = dose: 12.5 mg/kg/injection, schedule: Q01DX009 (ip), vehicle: Klucel (hydroxypropylcellulose) (HPC)
[9] = dose: 25.0 mg/kg/injection, schedule: Q01DX009 (ip), vehicle: Klucel (hydroxypropylcellulose) (HPC)
[10] = dose: 12.5 mg/kg/injection, schedule: Q01DX009 (ip), vehicle: water
[11] = dose: 6.25 mg/kg/injection, schedule: Q01DX009 (ip), vehicle: saline with Tween-80
[12] = dose: 12.5 mg/kg/injection, schedule: Q01DX009 (ip), vehicle: saline with Tween-80
[13] = dose: 25.0 mg/kg/injection, schedule: Q01DX009 (ip), vehicle: saline with Tween-80
[14] = dose: 12.5 mg/kg/injection, schedule: Q01DX009 (ip), vehicle: saline
[15] = dose: 400.0 mg/kg/injection, schedule: Q01DX009 (ip), vehicle: Klucel (hydroxypropylcellulose) (HPC)

## COC(=O)NC1C(C)OC(OC2C/C=C(/C)C3C=CC4C(OC5CC(OC6CCC(OC7CC(O)C(OC8CCC(O)C(C)O8)C(C)O7)C(C)O6)C(OC(C)=O)C(C)O5)C(C)CC(C)C4C3(C)/C(O)=C3/C(=O)OC4(CC(C=O)=CC(O)C4/C=C\2C)C3=O)CC1(C)[N+](=O)[O-] (configuration not stated)
dose: 2.5 mg/kg/injection, schedule: Q01DX009 (ip), vehicle: water
  T/C: 159 % of control
dose: 5.0 mg/kg/injection, schedule: Q01DX009 (ip), vehicle: water
  T/C: 165 % of control
dose: 10.0 mg/kg/injection, schedule: Q01DX009 (ip), vehicle: water
  T/C: 157 % of control

## CC(C)Nc1ccc(Nc2ccc(NC(C)C)cc2)cc1
dose: 4.5 mg/kg/injection, schedule: Q01DX009 (ip), vehicle: alcohol
  T/C: 100 % of control
dose: 6.75 mg/kg/injection, schedule: Q04DX003 (ip), vehicle: alcohol
  T/C: 102 % of control
dose: 9.0 mg/kg/injection, schedule: Q01DX009 (ip), vehicle: alcohol
  T/C: 92 % of control
dose: 13.5 mg/kg/injection, schedule: Q04DX003 (ip), vehicle: alcohol
  T/C: 92 % of control and 97 % of control

## CC(C)c1ccc(C(O)C2CC2)cc1 (configuration not stated)
[1]
  T/C: 110 % of control
[2]
  T/C: 102 % of control

## CCN(C(=O)c1cccc(C(=O)N(CC)c2ccccc2C)c1)c1ccccc1C
[3]
  T/C: 101 % of control
[4]
  T/C: 98 % of control
[5]
  T/C: 102 % of control

## N=C(N)SCc1cccc2c(=O)cc(-c3ccccc3)oc12
dose: 50.0 mg/kg/injection, schedule: Q01DX009 (ip), vehicle: saline
  T/C: 101 % of control
dose: 100.0 mg/kg/injection, schedule: Q01DX009 (ip), vehicle: saline
  T/C: 111 % of control
dose: 200.0 mg/kg/injection, schedule: Q01DX009 (ip), vehicle: saline
  T/C: 86 % of control

## CNC(=O)Nc1c(C)cccc1C
[4]
  T/C: 96 % of control
[5]
  T/C: 100 % of control

## CCC(=O)Nc1ccc(C)c(Cl)c1
[2]
  T/C: 105 % of control
[6]
  T/C: 105 % of control
[7]
  T/C: 115 % of control

## OC1CCCC2CCC[N-]C12.OC1CCCC2CCC[N-]C12.[Mn+2] (configuration not stated)
[8]
  T/C: 109 % of control
[9]
  T/C: 95 % of control
[3]
  T/C: 105 % of control
[4]
  T/C: 94 % of control
[5]
  T/C: 98 % of control

## CCO/C=C1\SC(=S)N(c2cccc(C)c2)C1=O
[8]
  T/C: 94 % of control
[9]
  T/C: 97 % of control
[3]
  T/C: 100 % of control
[4]
  T/C: 87 % of control
dose: 100.0 mg/kg/injection, schedule: Q04DX003 (ip), vehicle: Klucel (hydroxypropylcellulose) (HPC)
  T/C: 100 % of control
dose: 200.0 mg/kg/injection, schedule: Q04DX003 (ip), vehicle: Klucel (hydroxypropylcellulose) (HPC)
  T/C: 89 % of control
dose: 400.0 mg/kg/injection, schedule: Q04DX003 (ip), vehicle: Klucel (hydroxypropylcellulose) (HPC)
  T/C: 92 % of control

## CCCCC(NC(=O)CNC(=O)CN)C(=O)O (stereo not drawn) (H-Gly-Gly-[ξNle]-OH)
[1]
  T/C: 97 % of control
[2]
  T/C: 103 % of control
[6]
  T/C: 92 % of control
[7]
  T/C: 93 % of control

## O=C1Cc2cc3c(cc2C=C2CCCN12)OCO3
[10]
  T/C: 117 % of control
dose: 25.0 mg/kg/injection, schedule: Q01DX009 (ip), vehicle: water
  T/C: 108 % of control
dose: 50.0 mg/kg/injection, schedule: Q01DX009 (ip), vehicle: water
  T/C: 102 % of control
dose: 100.0 mg/kg/injection, schedule: Q01DX009 (ip), vehicle: water
  T/C: 107 % of control

## CC(C)CC(NC(=O)CCl)C(=O)O (configuration not stated)
[11]
  T/C: 110 % of control
[12]
  T/C: 95 % of control
[13]
  T/C: 95 % of control

## ClCCCN1CCCCC1CCl (configuration not stated)
dose: 3.12 mg/kg/injection, schedule: Q01DX009 (ip), vehicle: saline
  T/C: 111 % of control
dose: 3.12 mg/kg/injection, schedule: Q04DX003 (ip), vehicle: saline
  T/C: 105 % of control
dose: 6.25 mg/kg/injection, schedule: Q04DX003 (ip), vehicle: saline
  T/C: 116 % of control
dose: 8.33 mg/kg/injection, schedule: Q01DX009 (ip), vehicle: water
  T/C: 155 % of control and 159 % of control
[14]
  T/C: 176 % of control
[10]
  T/C: 185 % of control and 192 % of control

## CCCCCC#CC(=O)OC
[12]
  T/C: 102 % of control
[13]
  T/C: 86 % of control
[1]
  T/C: 86 % of control

## O=C(C1CO1)C(Cl)(Cl)Cl (configuration not stated)
[14]
  T/C: 105 % of control
dose: 25.0 mg/kg/injection, schedule: Q01DX009 (ip), vehicle: saline
  T/C: 110 % of control

## CCC(C)C1NC(=O)C(NC(=O)c2c3nc4c(C(=O)NC5C(=O)NC(C(C)CC)C(=O)N6CCCC6C(=O)N(C)CC(=O)N(C)C(C(C)C)C(=O)OC5C)cc([N+](=O)[O-])c(C)c4oc-3c(C)c(=O)c2N)C(C)OC(=O)C(C(C)C)N(C)C(=O)CN(C)C(=O)C2CCCN2C1=O (configuration not stated)
dose: 25.0 micrograms/kg/injection, schedule: Q01DX009 (ip), vehicle: water
  T/C: 110 % of control
dose: 50.0 micrograms/kg/injection, schedule: Q01DX009 (ip), vehicle: water
  T/C: 119 % of control
dose: 100.0 micrograms/kg/injection, schedule: Q01DX009 (ip), vehicle: water
  T/C: 124 % of control
dose: 400.0 micrograms/kg/injection, schedule: Q01DX009 (ip), vehicle: water
  T/C: 160 % of control

## CN(C)CCN1C(=O)c2cccc3cc(N)cc(c23)C1=O
dose: 1.0 mg/kg/injection, schedule: Q01DX009 (ip), vehicle: acid diluted with saline
  T/C: 99 % of control
dose: 2.0 mg/kg/injection, schedule: Q01DX009 (ip), vehicle: acid diluted with saline
  T/C: 110 % of control
dose: 4.0 mg/kg/injection, schedule: Q01DX009 (ip), vehicle: acid diluted with saline
  T/C: 114 % of control
dose: 8.0 mg/kg/injection, schedule: Q01DX009 (ip), vehicle: acid diluted with saline
  T/C: 122 % of control
dose: 16.0 mg/kg/injection, schedule: Q01DX009 (ip), vehicle: acid diluted with saline
  T/C: 155 % of control

## O=C(O)c1cccc2[nH]c(=O)oc(=O)c12
[2]
  T/C: 89 % of control
[6]
  T/C: 91 % of control

## Nc1cc(N)cc(C(=O)c2ccccc2)c1
[2]
  T/C: 93 % of control
[6]
  T/C: 97 % of control
[7]
  T/C: 93 % of control

## COc1cc2c(cc1OC)C13CCN4CC5=CCOC6CC(=O)N2C1C6C5CC43 (configuration not stated) (tested in a mixture with another compound)
[9]
  T/C: 103 % of control
[3]
  T/C: 91 % of control

## CC1=CC(=O)C(CO)=CC1=O
dose: 0.05 mg/kg/injection, schedule: Q01DX009 (ip), vehicle: saline with Tween-80
  T/C: 94 % of control
dose: 0.1 mg/kg/injection, schedule: Q01DX009 (ip), vehicle: saline with Tween-80
  T/C: 103 % of control
dose: 0.2 mg/kg/injection, schedule: Q01DX009 (ip), vehicle: saline with Tween-80
  T/C: 93 % of control
dose: 0.38 mg/kg/injection, schedule: Q01DX009 (ip), vehicle: saline with Tween-80
  T/C: 93 % of control
dose: 0.4 mg/kg/injection, schedule: Q01DX009 (ip), vehicle: saline with Tween-80
  T/C: 94 % of control

## CCCCNC(C)(C)C(SS)c1ccco1 (configuration not stated)
dose: 3.0 mg/kg/injection, schedule: Q01DX009 (ip), vehicle: alcohol
  T/C: 107 % of control
dose: 6.0 mg/kg/injection, schedule: Q01DX009 (ip), vehicle: alcohol
  T/C: 107 % of control
dose: 12.0 mg/kg/injection, schedule: Q01DX009 (ip), vehicle: alcohol
  T/C: 112 % of control
dose: 37.5 mg/kg/injection, schedule: Q01DX009 (ip), vehicle: saline
  T/C: 87 % of control
dose: 55.0 mg/kg/injection, schedule: Q01DX009 (ip), vehicle: saline
  T/C: 106 % of control

## NNS(=O)(=O)c1ccc(OCC(=O)O)cc1
[4]
  T/C: 98 % of control
[5]
  T/C: 97 % of control
[15]
  T/C: 93 % of control

## CC(NC(=O)C1CCCN1C(=O)OCc1ccccc1)C(=O)O (configuration not stated)
[1]
  T/C: 91 % of control
[2]
  T/C: 90 % of control

## CCCN(CCC)CCCCCCO
[1]
  T/C: 102 % of control
[2]
  T/C: 102 % of control
[6]
  T/C: 99 % of control

## CC1CCC[N-]C1.CC1CCC[N-]C1.CC1CCC[N-]C1.CC1CCC[N-]C1.[Cl][Rh][Cl] (configuration not stated)
dose: 3.0 mg/kg/injection, schedule: Q01DX009 (ip), vehicle: Klucel (hydroxypropylcellulose) (HPC)
  T/C: 111 % of control
dose: 6.0 mg/kg/injection, schedule: Q01DX009 (ip), vehicle: Klucel (hydroxypropylcellulose) (HPC)
  T/C: 110 % of control
dose: 12.0 mg/kg/injection, schedule: Q01DX009 (ip), vehicle: Klucel (hydroxypropylcellulose) (HPC)
  T/C: 115 % of control

## CCCCCCCCCCCCOc1ccccn1
[5]
  T/C: 88 % of control
[15]
  T/C: 86 % of control

## C=C/C(C)=C/[C@H](C)C(=O)C[C@H](O)CC1CC(=O)NC(=O)C1
[11]
  T/C: 121 % of control
[12]
  T/C: 109 % of control
[13]
  T/C: 121 % of control
[2]
  T/C: 121 % of control
